Where two headings read alike, the source gives them in different places.
How the values were obtained:
5HT2B receptors = molecular target: T1, 5HT2B receptors (Homo sapiens, UniProt P41595); assay: Human 5-HT2B functional assay in CHO-K1 cells (calcium flux, FLIPR); format: cell-based
T1 construct: expressed in transfected cells; host or cells: CHO-K1 cells
In short: (§1)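 Frozen CHO-K1 cells over-expressing receptor, serum-starved overnight, loaded with Ca4 dye plus 2.5 mM probenecid for 60 min at room temperature. FLIPR fluorescence (ex 480/em 530 nm, 25° C) recorded 3 min after compound addition; 6-point 1:10 series from 10 μM, 0.2% DMSO. Response normalized to serotonin, 4-parameter fit gives EC50; Emax as % of serotonin.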

5HT2C receptors = molecular target: T2, 5HT2C receptors (Homo sapiens, UniProt P28335); assay: Human 5-HT2C functional assay in CHO-K1 cells (calcium flux, FLIPR); format: cell-based; parameters: expressed in transfected cells; host or cells: CHO-K1 cells
T2 sequence (P28335 33-458): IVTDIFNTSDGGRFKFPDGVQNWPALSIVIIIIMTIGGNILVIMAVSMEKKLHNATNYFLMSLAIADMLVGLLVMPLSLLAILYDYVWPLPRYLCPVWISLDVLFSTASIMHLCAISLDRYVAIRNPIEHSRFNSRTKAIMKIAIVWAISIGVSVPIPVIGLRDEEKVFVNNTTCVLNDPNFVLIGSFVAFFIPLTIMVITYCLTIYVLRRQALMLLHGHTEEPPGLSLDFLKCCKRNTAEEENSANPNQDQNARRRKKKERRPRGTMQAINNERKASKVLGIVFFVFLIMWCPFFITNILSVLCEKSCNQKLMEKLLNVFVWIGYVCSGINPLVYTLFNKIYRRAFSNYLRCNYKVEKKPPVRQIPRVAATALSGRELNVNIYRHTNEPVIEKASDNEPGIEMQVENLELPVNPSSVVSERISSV
In short: as §1

[1] = CHO-K1 cells over-expressing 5HT2B, calcium flux, read-out: EC50 (μM), 5-HT2B Agonist Activity
[2] = CHO-K1 cells over-expressing 5HT2C, calcium flux, read-out: EC50 (μM), 5-HT2c Agonist Activity
[3] = CHO-K1 cells, percentage relative to the effect of serotonin, read-out: Emax (%), 5-HT2c Agonist Activity
[4] = CHO-K1, read-out: Emax (%), 5-HT2B Agonist Activity
[5] = CHO-K1, read-out: Emax (%), 5-HT2c Agonist Activity, CHO-K1 cells, percentage relative to the effect of serotonin
[6] = CHO-K1 cells, percentage relative to the effect of serotonin, read-out: Emax (%), 5-HT2B Agonist Activity

T1 sequence (P41595 whole entry): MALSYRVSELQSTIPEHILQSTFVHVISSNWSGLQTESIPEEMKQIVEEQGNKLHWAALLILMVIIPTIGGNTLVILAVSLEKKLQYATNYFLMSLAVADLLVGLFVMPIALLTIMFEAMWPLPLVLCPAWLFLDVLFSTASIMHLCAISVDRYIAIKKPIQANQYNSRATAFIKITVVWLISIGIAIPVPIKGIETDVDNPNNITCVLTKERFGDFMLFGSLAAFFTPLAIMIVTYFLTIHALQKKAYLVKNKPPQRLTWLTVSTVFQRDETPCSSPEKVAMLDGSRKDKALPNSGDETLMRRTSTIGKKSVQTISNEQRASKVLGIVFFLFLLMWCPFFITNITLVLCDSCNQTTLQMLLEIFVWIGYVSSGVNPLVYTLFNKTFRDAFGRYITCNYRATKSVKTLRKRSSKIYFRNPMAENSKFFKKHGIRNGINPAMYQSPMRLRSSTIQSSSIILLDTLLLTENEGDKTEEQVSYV

Row | SMILES | EC50 (5HT2B receptors; [1]) [µM] | EC50 (5HT2C receptors; [2]) [µM] | Emax (5HT2C receptors; [3]) [%] | Emax (5HT2C receptors; CHO-K1, read-out: Emax (%), 5-HT2c Agonist Activity) [%] | Emax (5HT2B receptors; [6]) [%] | EC50 (5HT2B receptors) [µM] | Emax (5HT2B receptors; [4]) [%] | EC50 (5HT2C receptors) [µM] | Emax (5HT2C receptors; [5]) [%]
1 | O=C1CC2CNCCN2c2cc(COc3ccc(F)cc3)ccc2N1 (stereo not shown) [Example 115, 10-[(4-fluorophenoxy)methyl]-1,2,3,4,4a,5-hexahydropyrazino[1,2-a][1,5]benzodiazepin-6(7H)-one] | > 10 | 0.2 | > 120 |  |  |  |  |  | 
2 | O=C1CC2CNCCN2c2cc(-c3ccc(F)cc3)ccc2N1 (stereo not shown) [Example 74, 10-(4-fluorophenyl)-1,2,3,4,4a,5-hexahydropyrazino[1,2-a][1,5]benzodiazepin-6(7H)-one] | > 10 | 0.07 | 100 |  |  |  |  |  | 
3 | O=C1CC2CNCCN2c2cc(OCCc3cccc(F)c3)ccc2N1 (stereo not shown) [Example 152, 10-[2-(3-fluorophenyl)ethoxy]-1,2,3,4,4a,5-hexahydropyrazino[1,2-a][1,5]benzodiazepin-6(7H)-one] | > 10 | 0.01 | 100 |  |  |  |  |  | 
4 | C[C@@H]1C[C@H]2CNCCN2c2ccccc2O1 (single isomer, unassigned) [Example 252] |  |  |  |  |  | 0.06 | 40 | 0.006 | 105
5 | O=C1CC2CNCCN2c2cc(CCc3ccccc3C(F)(F)F)ccc2N1 (stereo not shown) [Example 146, 10-{2-[2-(trifluoromethyl)phenyl]ethyl}-1,2,3,4,4a,5-hexahydropyrazino[1,2-a][1,5]benzodiazepin-6(7H)-one] | > 10 | 0.005 | > 120 |  |  |  |  |  | 
6 | CCc1cccc(-c2ccc3c(c2)N2CCNCC2CC(=O)N3)c1 (stereo not shown) [Example 91, 10-(3-ethylphenyl)-1,2,3,4,4a,5-hexahydropyrazino[1,2-a][1,5]-benzodiazepin-6(7H)-one] | > 10 | 0.01 | > 120 |  |  |  |  |  | 
7 | [2H]c1cc2c(cc1[2H])N1CCNC[C@@H]1CCO2 [Example 267, (4aS)-(9,10-^2H2)-2,3,4,4a,5,6-hexahydro-1H-pyrazino[2,1-d][1,5]benzoxazepine] |  |  |  |  |  | 0.2 | 20 | 0.005 | 90
8 | C[C@H]1CN2c3ccccc3OCC[C@H]2CN1 [Example 271, (2S,4aS)-2-methyl-2,3,4,4a,5,6-hexahydro-1H-pyrazino[2,1-d][1,5]benzoxazepine] |  |  |  |  |  | > 10 |  | 0.1 | 50
9 | O=C1CC2CNCCN2c2cc(-c3ccoc3)ccc2N1 (stereo not shown) [Example 69, 10-(3-furyl)-1,2,3,4,4a,5-hexahydropyrazino[1,2-a][1,5]benzodiazepin-6(7H)-one] | 0.09 | 0.02 | 110 |  | 80 |  |  |  | 
10 | O=C1CC2CNCCN2c2cc(CCc3cccc(F)c3)ccc2N1 (stereo not shown) [Example 145, 10-[2-(3-fluorophenyl)ethyl]-1,2,3,4,4a,5-hexahydropyrazino[1,2-a][1,5]benzodiazepin-6(7H)-one] | > 10 | 0.006 | > 120 |  |  |  |  |  | 
11 | O=C1CC2CNCCN2c2cc(COc3ccccc3F)ccc2N1 (stereo not shown) [Example 113, 10-[(2-fluorophenoxy)methyl]-1,2,3,4,4a,5-hexahydropyrazino[1,2-a][1,5]-benzodiazepin-6(7H)-one] | 0.2 | 0.05 | > 120 |  | 50 |  |  |  | 
12 | O=C1NC[C@@H]2CNCC[C@@H]2c2ccccc21 (relative stereo) [Example 180, cis-1,2,3,4,4a,5,6,11b-octahydro-7H-pyrido[3,4-d][2]benzazepin-7-one] | > 10 | 0.2 |  |  |  |  |  |  | > 120
13 | CN1C(=O)CC2CNCCN2c2ccc(Cl)cc21 (stereo not shown) [Example 80, 9-chloro-7-methyl-1,2,3,4,4a,5-hexahydropyrazino[1,2-a][1,5]benzodiazepin-6(7H)-one] | > 10 | 0.6 |  |  |  |  |  |  | 100
14 | O=C1CC2CNCCN2c2cc(/C=C/c3ccccc3C(F)(F)F)ccc2N1 (stereo not shown) [Example 142, 10-{(E)-2-[2-(trifluoromethyl)phenyl]vinyl}-1,2,3,4,4a,5-hexahydropyrazino[1,2-a][1,5]benzodiazepin-6(7H)-one] | > 10 | 0.08 | > 120 |  |  |  |  |  | 
15 | O=C1CC2CNCCN2c2cc(OCc3ccccc3C(F)(F)F)ccc2N1 (stereo not shown) [Example 157, 10-{[2-(trifluoromethyl)benzyl]oxy}-1,2,3,4,4a,5-hexahydropyrazino[1,2-a][1,5]benzodiazepin-6(7H)-one] | > 10 | 0.0295 | > 120 |  |  |  |  |  | 
16 | Fc1ccc2c(c1)OCC[C@H]1CNCCN21 [Example 136, (4aS)-9-fluoro-2,3,4,4a,5,6-hexahydro-1H-pyrazino[2,1-d][1,5]benzoxazepine] |  |  |  |  |  | 0.1 | 20 | 0.002 | > 120
17 | C[C@H](Cc1ccccc1)Oc1ccc2c(c1)N1CCNCC1CC(=O)N2 (stereo partly drawn) [Example 159, 10-{[(2R)-1-phenylpropan-2-yl]oxy}-1,2,3,4,4a,5-hexahydropyrazino[1,2-a][1,5]benzodiazepin-6(7H)-one] | > 10 | 0.00402 | > 120 |  |  |  |  |  | 

The next lines start with results.

Row | EC50 (5HT2B receptors; [1]) [µM] | EC50 (5HT2C receptors; [2]) [µM] | Emax (5HT2C receptors; [3]) [%] | Emax (5HT2C receptors; CHO-K1, read-out: Emax (%), 5-HT2c Agonist Activity) [%] | Emax (5HT2B receptors; [6]) [%] | SMILES | EC50 (5HT2B receptors) [µM] | Emax (5HT2B receptors; [4]) [%] | EC50 (5HT2C receptors) [µM] | Emax (5HT2C receptors; [5]) [%]
18 | > 10 | 2 |  | 70 |  | FCC(CF)N1CCN2c3ccccc3OCC[C@H]2C1 [Example 265, (4aS)-3-(1,3-difluoropropan-2-yl)-2,3,4,4a,5,6-hexahydro-1H-pyrazino[2,1-d][1,5]benzoxazepine] |  |  |  | 
19 | > 10 | 0.008 | > 120 |  |  | C[C@H](Cc1ccccc1)Oc1ccc2c(c1)N1CCNC[C@@H]1CC(=O)N2 [Example 165, (4aS)-10-{[(2R)-1-phenylpropan-2-yl]oxy}-1,2,3,4,4a,5-hexahydropyrazino[1,2-a][1,5]benzodiazepin-6(7H)-one] |  |  |  | 
20 | 1 | 0.03 | > 120 |  | 10 | COc1ccccc1-c1ccc2c(c1)N1CCNC[C@@H]1CCO2 [Example 192, (4aS)-10-(2-methoxyphenyl)-2,3,4,4a,5,6-hexahydro-1H-pyrazino[2,1-d][1,5]benzoxazepine] |  |  |  | 
21 | 2 | 0.02 | > 120 |  | 15 | Fc1ccccc1-c1ccc2c(c1)N1CCNC[C@@H]1CCO2 [Example 203, (4aS)-10-(2-fluorophenyl)-2,3,4,4a,5,6-hexahydro-1H-pyrazino[2,1-d][1,5]-benzoxazepine] |  |  |  | 
22 | > 10 | 0.9 | 50 |  |  | c1ccc(CN2CCN3c4ccccc4OCC[C@H]3C2)cc1 [Example 168, (4aS)-3-benzyl-2,3,4,4a,5,6-hexahydro-1H-pyrazino[2,1-d][1,5]-benzoxazepine] |  |  |  | 
23 | > 10 | 0.02 | > 120 |  |  | Cc1cccc(-c2ccc3c(c2)N2CCNC[C@@H]2CCO3)c1 [Example 190, (4aS)-10-(3-methylphenyl)-2,3,4,4a,5,6-hexahydro-1H-pyrazino[2,1-d][1,5]benzoxazepine] |  |  |  | 
24 | > 10 | 0.03 | > 120 |  |  | O=C1CC2CNCCN2c2cc(Cc3ccccc3)ccc2N1 (stereo not shown) [Example 185, 10-benzyl-1,2,3,4,4a,5-hexahydropyrazino[1,2-a][1,5]benzodiazepin-6(7H)-one] |  |  |  | 
25 | > 10 | 0.06 | 110 |  |  | CCC(Oc1ccc2c(c1)N1CCNC[C@@H]1CC(=O)N2)c1ccccc1 (stereo partly drawn) [Example 177, (4aS)-10-(1-phenylpropoxy)-1,2,3,4,4a,5-hexahydropyrazino[1,2-a][1,5]benzodiazepin-6(7H)-one] |  |  |  | 

Reference: patent publication US8546377B2 (AbbVie Inc., priority 2009, dated 2013)
